Assays:
[1] = target: CHO cells expressing LOX-1 (Homo sapiens, UniProt P78380); details: only at high concentrations; cited from earlier work
macrophages = details: cited from earlier work
LOX-1 expression = details: cited from earlier work
[2] = system: human primary aortic endothelial cells; assay: ox-LDL uptake by human primary aortic endothelial cells (flow cytometry); assay type: cell-based; details: Endothelial cell, 0, 5, 50, 100, 250, 500 nM
Method: FIG. 7A depicts flow cytometry measurements using human primary aortic endothelial cells in the presence of 0, 5, 50 100, 250 and […] of Formula XVI. FIG. 7B depicts the percentage of internalized ox-LDL. The x-axis represents Formula XVI concentration (nM) and the y-axis represents ox-LDL uptake by ECs.
Ox-LDL uptake by human primary aortic endothelial cells was measured after exposure to 0, 5, 50, 100, 250 and 500 nM of the compound of Formula XVI (compound 13 in Table 3) using flow cytometry.

**Q.** With procyanidins as the compound, how does the “ox-LDL uptake in CHO cells expressing LOX-1” value [1] read?
**A.** inhibited ox-LDL uptake

**Q.** For `CCCCCCCCCCCCCCCCCC(=O)Nc1ccc(S(=O)(=O)O)c(NC(=O)CCCCCCCCCCCCCCCCC)c1` [2,4-bis(octadecanoylamino) benzenesulfonic acid], which “LDL binding to macrophages” value (macrophages) is on record?
**A.** prevented LDL from binding to macrophages

**Q.** For `CC(=O)Oc1ccccc1C(=O)O` [aspirin], which “ox-LDL mediated LOX-1 expression” value (LOX-1 expression) is on record?
**A.** reduce ox-LDL mediated LOX-1 expression

**Q.** Which IC50 [2] does the source give for `OC(COc1ccccc1)Cn1ccnc1I` (stereo not shown) [Formula XVI] here?
**A.** 26.7 nM

From US11465972B2, “Inhibitors of oxidized low-density lipoprotein receptor 1 and methods of use thereof” (United States Government as represented by the Department …, priority 2015, dated 2022)
